Columns and labels:
[1] = Cytotoxicity against Homo sapiens (human) PN-5C-12 at 100 ug after 72 hr by MTT assay; details: in vitro
[2] = tested on: Escherichia coli; test: Antimicrobial activity against Escherichia coli DH5[alpha] at 100 ug after 24 hr by agar disk diffusion method; type: functional; details: read-out: DIZ
[3] = Cytotoxicity against Homo sapiens (human) HL60-P58 at 100 ug after 72 hr by MTT assay; type: functional
[4] = tested on: Radical scavenging activity; test: Antioxidant activity assessed as DPPH radical scavenging activity at 100 ug after 20 min by UV-Visible spectrophotometry; type: functional
[5] = tested on: Proteus vulgaris; test: Antimicrobial activity against Proteus vulgaris MTCC 1751 at 100 ug after 24 hr by agar disk diffusion method; type: functional; details: MTCC 1751, 24 h, read-out: DIZ
[6] = Antioxidant activity assessed as hydroxyl radical scavenging activity at 100 ug after 5 min by UV-Visible spectrophotometry; type: functional
[7] = tested on: Staphylococcus aureus; test: Antimicrobial activity against Staphylococcus aureus MTCC 96 at 100 ug after 24 hr by agar disk diffusion method; type: functional; details: MTCC 96, 24 h, read-out: DIZ
[8] = Cytotoxicity against Homo sapiens (human) Hep-3BPN7 at 100 ug after 72 hr by MTT assay; type: functional
[9] = Antioxidant activity assessed as ferric reducing activity at 100 ug after 20 min by UV-Visible spectrophotometry; design: scale not given: the % may be the effect or the level left
[10] = Cytotoxicity against Homo sapiens (human) HeLa-B75 at 100 ug after 72 hr by MTT assay; type: functional
[11] = tested on: Candida albicans; test: Antimicrobial activity against Candida albicans MTCC 3017 at 100 ug after 48 hr by agar disk diffusion method; type: functional; details: MTCC 3017, 48 h, read-out: DIZ

SMILES | Activity [1] [%] | zone of inhibition at 100 µg/disc [2] [mm] | Activity [3] [%] | Activity [4] [%] | zone of inhibition at 100 µg/disc [5] [mm] | Activity [6] [%] | zone of inhibition at 100 µg/disc [7] [mm] | Activity [8] [%] | Activity [9] [%] | Activity [10] [%] | zone of inhibition at 100 µg/disc [11] [mm]
COc1ccccc1C(=O)/C=C/c1c(OC)cc(OC)c(C2=CCN(C)CC2)c1OC | 46.77 | 3.5 | 68.4 | 60 | 3 | 59.8 | 2.5 | 71.33 | 60.8 | 81.13 | –
COc1ccc(OC)c(C(=O)/C=C/c2c(OC)cc(OC)c(C3=CCN(C)CC3)c2OC)c1 | 41.1 | 2.5 | 66.3 | 57.7 | 5 | 54.9 | 5 | 73.4 | 66.5 | 82.09 | –
COc1cc(OC)c(C(=O)/C=C/c2c(OC)cc(OC)c(C3=CCN(C)CC3)c2OC)c(OC)c1 | 59.81 | 3.5 | 65.04 | 56.1 | 3.5 | 46.6 | 3.5 | 70.53 | 58.8 | 78.73 | –
COc1ccc(C(=O)/C=C/c2c(OC)cc(OC)c(C3=CCN(C)CC3)c2OC)cc1 | 46.11 | 3.5 | 56.97 | 55.6 | 7 | 57.9 | 2.5 | 72.33 | 67.7 | 80.86 | –
CN(Cc1cnc2nc(N)nc(N)c2n1)c1ccc(C(=O)N[C@@H](CCC(=O)O)C(=O)O)cc1 [METHOTREXATE] | 53.85 | – | 54.08 | – | – | – | – | 64.6 | – | 78.66 | –
COc1ccc(C(=O)/C=C/c2c(OC)cc(OC)c(C3=CCN(C)CC3)c2OC)c(OC)c1 | 47.82 | 3.15 | 78.48 | 60.6 | 3.5 | 59 | 2.5 | 77 | 53.1 | 83.4 | –
COc1cc(OC)c(C2=CCN(C)CC2)c(OC)c1/C=C/C(=O)c1cccc(N)c1 | 44.53 | 3.5 | 66.72 | 94.5 | 7 | 55.6 | 3.5 | 76.33 | 64.8 | 82.64 | 6.3
COc1cc(OC)c(C2=CCN(C)CC2)c(OC)c1/C=C/C(=O)c1ccc(F)cc1 | 69.43 | 4.5 | 62.18 | 22.9 | 7.5 | 38.7 | 2 | 79.86 | 48.3 | 85.04 | 3.5
COc1cc(OC)c(C2=CCN(C)CC2)c(OC)c1/C=C/C(=O)c1cccs1 | 67.19 | 1.1 | 54.28 | 22.7 | 6.5 | 36.5 | 2.5 | 79.8 | 59.6 | 84.91 | 1.5
COc1cc(OC)c(C2=CCN(C)CC2)c(OC)c1/C=C/C(=O)c1ccc(C)cc1 | 44.26 | 2.5 | 69.49 | 58.5 | 10.2 | 59.8 | 5 | 72.53 | 68.1 | 82.23 | 0.1
COc1cc(OC)c(C2=CCN(C)CC2)c(OC)c1/C=C/C(=O)c1ccc(Br)cc1 | 66.4 | 2 | 62.68 | 23.3 | – | 44.4 | 0.5 | 78.93 | 50.3 | 84.84 | 0.5
COc1cc(OC)c(C2=CCN(C)CC2)c(OC)c1/C=C/C(=O)c1ccccc1 | 61.79 | 5.5 | 63.52 | 27.9 | 2.5 | 41.4 | 5 | 78.06 | 58.4 | 84.15 | 3.5
COc1cc(OC)c(C2=CCN(C)CC2)c(OC)c1/C=C/C(=O)c1ccc(N)cc1 | 49.67 | 6.5 | 61.17 | 89.6 | 5 | 54.1 | 1.5 | 75.06 | 48.3 | 79.28 | 2.9
COc1cc(OC)c(C2=CCN(C)CC2)c(OC)c1/C=C/C(=O)c1ccc(Cl)cc1Cl | 50.98 | 2.5 | 58.99 | 56.7 | 5.5 | 48.1 | 1.1 | 71.26 | 63.6 | 79.42 | 1.1
COc1cc(OC)c(C2=CCN(C)CC2)c(OC)c1/C=C/C(=O)c1ccc(Cl)cc1 | 67.98 | 3 | 65.04 | 20.4 | 3 | 16.9 | 2.5 | 77.4 | 41.9 | 83.74 | –
COc1cc(OC)c(C2=CCN(C)CC2)c(OC)c1/C=C/C(=O)c1ccc(Cl)c(Cl)c1 | 67.19 | 1.5 | 65.04 | 56.9 | 9.1 | 59.8 | 5 | 79.8 | 46.7 | 85.93 | 5.5
COc1cc(OC)c(C2=CCN(C)CC2)c(OC)c1/C=C/C(=O)c1ccc[nH]1 | 57.57 | 6.25 | 66.55 | 68.7 | 3 | 63.1 | 1.1 | 80.13 | 61.2 | 77.77 | 1.5
COc1ccc(C(=O)/C=C/c2c(OC)cc(OC)c(C3=CCN(C)CC3)c2OC)cc1OC | 65.21 | 2 | 62.77 | 22.3 | 5.5 | 35 | 0.5 | 79.46 | 50.7 | 84.84 | 1.5
COc1cc(O)c(C(=O)/C=C/c2c(OC)cc(OC)c(C3=CCN(C)CC3)c2OC)c(OC)c1 | 44.13 | 2 | 64.2 | 57.3 | 9.5 | 51.1 | 1.5 | 71.4 | 69.3 | 79.69 | –
COc1cc(OC)c(C2=CCN(C)CC2)c(OC)c1/C=C/C(=O)c1cc(Cl)ccc1Cl | 60.47 | 1.5 | 65.63 | 55.4 | 6.5 | 48.5 | 1.5 | 70.8 | 62.4 | 79.97 | 1.5
COc1cc(OC)c(C2=CCN(C)CC2)c(OC)c1/C=C/C(=O)c1ccc([N+](=O)[O-])cc1 | 70.09 | 2 | 65.88 | 25 | 4 | 51.5 | 5 | 80.13 | 46.3 | 83.67 | 2
COc1cc(OC)c(C2=CCN(C)CC2)c(OC)c1/C=C/C(=O)c1ccc(F)c(F)c1 | 65.48 | 2 | 70.5 | 58.8 | 4 | 52.2 | 2.5 | 76.93 | 43.9 | 82.85 | 1.1

Source: ChEMBL document CHEMBL3046962, “Synthesis of new olefin chalcone derivatives as antitumor, antioxidant and antimicrobial agents” (Med Chem Res, 2012)
